In brackets after ≈: the same amount, converted by molar mass. Activity calls are given as the source filed them. No cut-off for these calls is given here.
Assays:
[1] = system: Human immunodeficiency virus 1; assay: Antiviral activity against HIV1 in human H9 cells assessed as inhibition of viral replication; assay type: functional, organism-based; settings: for EC50: Human immunodeficiency virus 1, H9
[2] = system: H9; assay: Cytotoxicity against human H9 cells; assay type: cell-based
[3] = Therapeutic index, ratio of IC50 for human H9 cells to EC50 for HIV1; assay type: cell-based; settings: read-out: Ratio IC50/EC50

Row | EC50 [1] [µg/mL] | Compound | IC50 [2] [µg/mL] | Activity [1] | selectivity ratio [3]
1 | 0.012 (≈ 0.0449 µM) | Cc1cn([C@H]2C[C@H](N=[N+]=[N-])[C@@H](CO)O2)c(=O)[nH]c1=O [ZIDOVUDINE] |  |  | 
2 |  | CC(=O)OC[C@]12[C@H](OC(C)=O)[C@H](OC(C)=O)[C@@H]3[C@@H](OC(C)=O)[C@@]14O[C@@]3(C)COC(=O)c1cccnc1CCC(C)C(=O)O[C@@H]([C@H](OC(=O)c1ccccc1)[C@@H]2OC(C)=O)[C@]4(C)O (some centres undefined) [WILFORINE] | > 100 | inactive | 
3 | 0.1 (≈ 0.114 µM) | CC(=O)OC[C@]12[C@H](OC(C)=O)[C@H](OC(C)=O)[C@@H]3[C@@H](OC(C)=O)[C@@]14O[C@@]3(C)COC(=O)c1cnccc1C(C)C(C)(O)C(=O)O[C@@H]([C@H](OC(=O)c1ccco1)[C@@H]2OC(C)=O)[C@]4(C)O (some centres undefined) [HYPOGLAUNINE B] | > 100 |  | > 1000
4 | 35.2 (≈ 41 µM) | CC(=O)OC[C@]12[C@H](OC(C)=O)[C@H](OC(C)=O)[C@@H]3[C@@H](OC(C)=O)[C@@]14O[C@@]3(C)COC(=O)c1cccnc1C(C)C(C)C(=O)O[C@@H]([C@H](OC(=O)c1ccco1)[C@@H]2OC(C)=O)[C@]4(C)O (some centres undefined) [HYPONINE F] | > 100 |  | > 2.84
5 | 0.13 (≈ 0.149 µM) | CC(=O)O[C@@H]1[C@@H]2[C@@H](OC(C)=O)[C@@]34O[C@@]2(C)COC(=O)c2cnccc2C(C)C(C)(O)C(=O)O[C@@H]([C@H](OC(C)=O)[C@H](OC(C)=O)[C@@]3(COC(=O)c2ccco2)[C@@H]1OC(C)=O)[C@]4(C)O (some centres undefined) [HYPOGLAUNINE A] | > 100 |  | > 769
6 |  | CC(=O)OC[C@]12[C@H](OC(C)=O)[C@H](OC(C)=O)[C@@H]3[C@@H](OC(=O)c4ccccc4)[C@@]14O[C@@]3(C)COC(=O)c1cccnc1C(C)C(C)C(=O)O[C@@H]([C@H](OC(=O)c1cccnc1)[C@@H]2OC(C)=O)[C@]4(C)O (some centres undefined) [HYPONINE D] | 20.2 (≈ 21.7 µM) | inactive | 
7 | 0.503 (≈ 0.66 µM) | CC(=O)OC[C@]12[C@H](OC(C)=O)C(=O)[C@@H]3[C@@H](OC(C)=O)[C@@]14O[C@@]3(C)COC(=O)c1cccnc1C(C)C(C)C(=O)O[C@@H]([C@H](OC(C)=O)[C@@H]2OC(C)=O)[C@]4(C)O (some centres undefined) [EVONINE] | 21.2 (≈ 27.8 µM) |  | 42.1
8 | 2.54 (≈ 2.69 µM) | COC(=O)C[C@@H]1C(=O)CCC(C)C(=O)O[C@@H]2[C@@H]3[C@@H](OC(C)=O)[C@@]45O[C@@]3(C)COC(=O)c3cccnc3C(C)C(C)C(=O)O[C@@H]([C@H](OC(C)=O)[C@H](OC(C)=O)[C@@]4(COC1=O)[C@@H]2OC(C)=O)[C@]5(C)O (some centres undefined) [TRIPTONINE A] | > 100 |  | > 39.4
9 | < 0.1 | COC(=O)C[C@@H]1C(=O)CC[C@H](C)C(=O)O[C@@H]2[C@@H]3[C@@H](OC(C)=O)[C@@]45O[C@@]3(C)COC(=O)c3cnccc3[C@@H](C)[C@@](C)(O)C(=O)O[C@@H]([C@H](OC(C)=O)[C@H](OC(C)=O)[C@@]4(COC1=O)[C@@H]2OC(C)=O)[C@]5(C)O | > 100 |  | > 1000
10 | 0.9 (≈ 1.04 µM) | CC(=O)OC[C@]12[C@H](OC(C)=O)[C@H](OC(C)=O)[C@@H]3[C@@H](OC(=O)c4ccccc4)[C@@]14O[C@@]3(C)COC(=O)c1cccnc1C(C)C(C)C(=O)O[C@@H]([C@H](OC(C)=O)[C@@H]2OC(C)=O)[C@]4(C)O (some centres undefined) | 56.8 (≈ 65.4 µM) |  | 63.4
11 | 0.1 (≈ 0.123 µM) | CC(=O)O[C@@H]1[C@H](OC(C)=O)[C@@]2(COC(=O)c3ccco3)[C@H](OC(C)=O)C(=O)[C@@H]3[C@@H](OC(C)=O)[C@@]24O[C@@]3(C)COC(=O)c2cccnc2C(C)C(C)C(=O)O[C@@H]1[C@]4(C)O (some centres undefined) [HYPONINE B] | > 100 |  | > 1000
12 |  | CC(=O)O[C@@H]1[C@@H]2[C@@H](OC(C)=O)[C@@]34O[C@@]2(C)COC(=O)c2cnccc2C(C)C(C)C(=O)O[C@@H]([C@H](OC(C)=O)[C@H](OC(C)=O)[C@@]3(COC(=O)c2ccco2)[C@@H]1OC(C)=O)[C@]4(C)O (some centres undefined) [HYPOGLAUNINE D] | 22.2 (≈ 25.9 µM) | inactive | 
13 |  | CC(=O)OC[C@]12[C@H](OC(C)=O)[C@H](OC(C)=O)[C@@H]3[C@@H](OC(C)=O)[C@@]14O[C@@]3(C)COC(=O)c1cccnc1CCC(C)C(=O)O[C@@H]([C@H](OC(=O)c1ccco1)[C@@H]2OC(C)=O)[C@]4(C)O (some centres undefined) [WILFORGINE] | > 100 | inactive | 
14 | 1 (≈ 1.17 µM) | CC(=O)OC[C@]12[C@H](OC(C)=O)[C@H](OC(C)=O)[C@@H]3[C@@H](OC(=O)c4ccco4)[C@@]14O[C@@]3(C)COC(=O)c1cccnc1C(C)C(C)C(=O)O[C@@H]([C@H](OC(C)=O)[C@@H]2OC(C)=O)[C@]4(C)O (some centres undefined) [HYPONINE A] | 27.7 (≈ 32.3 µM) |  | 27.7
15 | 0.203 (≈ 0.252 µM) | CC(=O)OC[C@]12[C@H](OC(C)=O)[C@H](OC(C)=O)[C@@H]3[C@@H](OC(C)=O)[C@@]14O[C@@]3(C)COC(=O)c1cccnc1C(C)C(C)C(=O)O[C@@H]([C@H](OC(C)=O)[C@@H]2OC(C)=O)[C@]4(C)O (some centres undefined) [EUONYMINE] | 22.8 (≈ 28.3 µM) |  | 113
16 | 0.17 (≈ 0.185 µM) | CC(=O)OC[C@]12[C@H](OC(C)=O)[C@H](OC(=O)c3cccnc3)[C@@H]3[C@@H](OC(=O)c4ccco4)[C@@]14O[C@@]3(C)COC(=O)c1cccnc1C(C)C(C)C(=O)O[C@@H]([C@H](OC(C)=O)[C@@H]2OC(C)=O)[C@]4(C)O (some centres undefined) [HYPONINE E] | 1.95 (≈ 2.12 µM) |  | 11.3
17 | 0.884 (≈ 1.16 µM) | CC(=O)OC[C@]12[C@H](OC(C)=O)[C@H](OC(C)=O)[C@@H]3[C@@H](O)[C@@]14O[C@@]3(C)COC(=O)c1cccnc1C(C)C(C)C(=O)O[C@@H]([C@H](OC(C)=O)[C@@H]2OC(C)=O)[C@]4(C)O (some centres undefined) [NEOEUONYMINE] | > 100 |  | > 113
18 | 0.48 (≈ 0.553 µM) | CC(=O)OC[C@]12[C@H](OC(C)=O)[C@H](OC(C)=O)[C@@H]3[C@@H](OC(C)=O)[C@@]14O[C@@]3(C)COC(=O)c1cccnc1C(C)C(C)C(=O)O[C@@H]([C@H](OC(=O)c1ccccc1)[C@@H]2OC(C)=O)[C@@]4(C)O (some centres undefined) [FORRESTINE] | > 100 |  | > 208

Row | Compound | EC50 [1] [µg/mL] | IC50 [2] [µg/mL] | Activity [1] | selectivity ratio [3]
19 | CC(=O)OC[C@]12[C@H](OC(C)=O)[C@H](OC(C)=O)[C@@H]3[C@@H](OC(C)=O)[C@@]14O[C@@]3(C)COC(=O)c1cccnc1CCC(C)(O)C(=O)O[C@@H]([C@H](OC(=O)c1ccco1)[C@@H]2OC(C)=O)[C@]4(C)O (some centres undefined) [WILFORTRINE] | < 0.1 | > 100 |  | > 1000
20 | CC(=O)OC[C@]12[C@H](OC(C)=O)[C@H](OC(C)=O)[C@@H]3[C@@H](OC(C)=O)[C@@]14O[C@@]3(C)COC(=O)c1cccnc1CCC(C)(O)C(=O)O[C@@H]([C@H](OC(=O)c1ccccc1)[C@@H]2OC(C)=O)[C@]4(C)O (some centres undefined) [WILFORDINE] | < 0.1 | 20 (≈ 22.6 µM) |  | > 220
